Test results as given in patent US11857601B2, “Pharmaceutical composition for cancer treatment comprising fusion protein including IL-2 protein and CD80 protein and anticancer drug” (GI INNOVATION, INC., priority 2020, dated 2024).
Entries after “also recorded” stand apart in the source; their conditions may differ.

How the values were obtained:
[1] = system: CT-26 cancer cell line; test: mGI101 in mice transplanted with CT-26 (Exp. Ex. 19); format: in vivo, BALB/c mice
[2] = system: CT26 cells; test: mGI-101 and Lenvatinib in CT26 allotransplanted tumor model; format: in vivo, BALB/c mice; conditions: end of the experiment, 10 mice per group
Protocol: CT26 cells were purchased from ATCC (USA) and cultured in RPMI1640 medium (Gibco) containing 10% FBS (Gibco) and 1% antibiotic/antifungal agent (Gibco). The cultured cells were harvested using trypsin (Gibco) and then suspended in PBS. In order to establish an allotransplanted tumor model, 1×10^6 CT26 cells were subcutaneously injected into the right flank of BALB/c female mice (7-week-old).
A certain period of time after the cell transplantation, the tumor volume was measured for animals with no abnormalities in the health condition of the animals, and the mice were assigned so that the average tumor volume of each group was less than 70-100 mm^3, each group including 10 mice.
In the case of Lenvatinib powder, the dose was calculated and weighed, and it was prepared to the dose concentration using a 0.5% methyl cellulose excipient. In order to minimize the loss of the test substance, the doses for 3 or 4 days were weighed, and prepared using the excipient on the day of administration and injected.
Clinical symptoms such as a disease and a behavioral change were observed once a day during the test period, and deceased animals were identified, and the mice were sacrificed when the tumor size reached a size of 4,000 mm^3.
The tumor volume before administration of each subject was set as the value measured at the time of grouping.
All statistical calculations were performed using Prism 8.0 (Graph Pad Software Inc, USA). The comparison of tumor volume measurements was made through two-way analysis of variance followed by Tukey's multiple comparison test. A p value of less than 0.05 was considered significant.

[3] = system: MDA-MB-231 cells; test: Cancer cell killing, GI-101 and Ribociclib, MDA-MB-231 with PBMCs; format: cell-based, human; conditions: GI-101 100 nM, Ribociclib 913 nM, 24 hours, compared with co-culturing only cancer cells and PBMCs
Description: This experiment was to evaluate the effect of killing cancer cells by treating MDA-MB-231 cells (human breast cancer cells) with the test substance GI-101 alone or in combination with Ribociclib substance in an in vitro environment.
MDA-MB-231 cells were purchased from the Korea cell line bank and cultured in RPMI1640 medium (Gibco) containing 10% FBS (Gibco) and 1% antibiotic/antifungal agent (Gibco). For use in cancer cell killing test, the cells were harvested using trypsin (Gibco), and then suspended in RPMI1640 medium, and then dead cells and debris were removed using Ficoll (GE Healthcare Life Sciences) solution. The cells suspended in RPMI1640 medium were carefully layered on ficoll solution. […]
In order to identify the effect of killing the cells, a CytoTox Green reagent ([…]™ CytoTox Green, Satorius) that binds to the DNA of cells to be killed was prepared in 1 μl per 1 mL of RPMI1640 medium containing 5% human AB serum (Sigma). The prepared medium was used for dilution of the test substance, and the effect of killing the cells could be quantitatively identified by staining the cells to be killed when the test substance was co-cultured with cancer cell lines and PBMCs. […]

[4] = system: CT-26 cancer cell line; test: GI101 in mice transplanted with CT-26 (Exp. Ex. 16.1); format: in vivo, BALB/c mice
Protocol: The tumor size was measured daily.

| Substance | tumor volume / tumor size ([1]; 6 mg/kg i.v., vs negative control) | tumor growth inhibition rate / anticancer efficacy ([1]; compared with combination of mCD80 4.9 mg/kg and Fc-IL-2v (GI101C2) 2.8 mg/kg) | tumor inhibitory efficacy ([1]; compared with respective mCD80 and IL-2v single formulations) | number of mice with tumor growth inhibition rate of 30% or more [2] [mice] | number of mice with tumor growth inhibition rate of 50% or more [2] [mice] | number of mice with tumor growth inhibition rate of 80% or more [2] [mice] | effect of killing cancer cells [3] | tumor inhibitory effect ([4]; GI101 0.1 mg/kg, compared with anti-PD-1 antibody group (p<0.05)) | Tumor growth inhibition ([4]; GI101 0.1 or 1 mg/kg, anti-PD-1 5 mg/kg, anti-CTLA-4 5 mg/kg i.v., vs negative control) |
| --- | --- | --- | --- | --- | --- | --- | --- | --- | --- |
| mGI101: fusion protein: mouse CD80, Ig hinge, Fc domain, linker, IL-2 variant (2M) (R38A, F42A); SEQ ID NO: 15 | significant inhibition of tumor size | excellent tumor growth inhibition rate; also recorded: excellent anticancer efficacy | had tumor inhibitory efficacy | 6 | 2 | 1 | – | – | – |
| GI101: fusion protein: human CD80 fragment, Ig hinge, Fc domain, linker, IL-2 variant (2M) (R38A, F42A); SEQ ID NO: 9 | – | – | – | – | – | – | co-culturing only cancer cells and PBMCs, the effect of killing cancer cells was identified, and tended to be higher than that of treatment with GI-101 alone | significant tumor inhibitory effect | significant tumor growth inhibition |
